Data as given in ChEMBL document CHEMBL4673307, “Pyrrolo[2,3-b]pyridine-3-one derivatives as novel fibroblast growth factor receptor 4 inhibitors for the treatment of hepatocellular carcinoma” (Bioorg Med Chem, 2021).
pIC50: −log10 of the molar value.

Legend:
[1] = Metabolic stability in human liver microsomes assessed as half life at 1 uM incubated for 60 mins by LC-MS/MS analysis; type: ADME, Microsome
[2] = Metabolic stability in human liver microsomes assessed as intrinsic clearance at 1 uM incubated for 60 mins by LC-MS/MS analysis; type: ADME, Microsome; settings: read-out: CLH
Hep 3B2 = assay: Antiproliferative activity against human Hep3B cells assessed as reduction in cell viability incubated for 72 hrs by Cell Titer-Glo assay
[3] = biological target: Fibroblast growth factor receptor 4 (Homo sapiens, UniProt P22455); assay: Inhibition of human FGFR4 using poly (Glu, Tyr)4:1 as substrate incubated for 20 mins followed by [33P]-ATP addition and measured after 120 mins by radiometric hotspot assay
Sequence of Fibroblast growth factor receptor 4 (P22455 whole entry): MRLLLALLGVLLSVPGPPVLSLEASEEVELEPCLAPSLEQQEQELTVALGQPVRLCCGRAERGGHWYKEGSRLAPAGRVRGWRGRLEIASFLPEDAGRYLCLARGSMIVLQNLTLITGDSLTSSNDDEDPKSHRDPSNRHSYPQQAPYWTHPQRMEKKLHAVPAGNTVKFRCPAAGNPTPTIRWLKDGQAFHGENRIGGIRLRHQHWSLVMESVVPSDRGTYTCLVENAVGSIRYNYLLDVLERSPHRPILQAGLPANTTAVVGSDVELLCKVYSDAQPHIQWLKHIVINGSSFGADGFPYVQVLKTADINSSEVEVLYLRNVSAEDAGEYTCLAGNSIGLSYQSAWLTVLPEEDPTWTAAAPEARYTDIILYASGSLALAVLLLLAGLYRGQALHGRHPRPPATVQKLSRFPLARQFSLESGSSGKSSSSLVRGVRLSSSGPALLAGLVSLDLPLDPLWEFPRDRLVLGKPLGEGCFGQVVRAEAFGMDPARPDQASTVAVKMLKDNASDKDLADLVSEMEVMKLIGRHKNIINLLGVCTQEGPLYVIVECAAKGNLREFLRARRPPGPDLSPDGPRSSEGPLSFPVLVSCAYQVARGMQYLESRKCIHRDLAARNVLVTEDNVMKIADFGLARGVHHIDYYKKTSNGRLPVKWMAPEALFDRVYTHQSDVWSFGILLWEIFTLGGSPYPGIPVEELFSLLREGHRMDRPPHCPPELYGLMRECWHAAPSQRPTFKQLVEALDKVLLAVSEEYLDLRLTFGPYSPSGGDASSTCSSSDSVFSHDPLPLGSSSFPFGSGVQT

[4] = Oral bioavailability in Sprague-Dawley rat at 10 mg/kg measured upto 24 hrs by LC-MS/MS analysis; type: ADME, organism-based; settings: in vivo
[5] = MRTlast in Sprague-Dawley rat at 10 mg/kg, po measured upto 24 hrs by LC-MS/MS analysis; type: ADME, organism-based; settings: in vivo
[6] = AUClast in Sprague-Dawley rat at 10 mg/kg, po measured upto 24 hrs by LC-MS/MS analysis; type: ADME, organism-based; parameters: route oral, dose 10 mg/kg, time <=24; settings: in vivo
[7] = Half life in Sprague-Dawley rat at 10 mg/kg, po measured upto 24 hrs by LC-MS/MS analysis; type: ADME, organism-based; settings: in vivo
[8] = Tmax in Sprague-Dawley rat at 10 mg/kg, po measured upto 24 hrs by LC-MS/MS analysis; type: ADME, organism-based; settings: in vivo
[9] = Cmax in Sprague-Dawley rat at 10 mg/kg, po measured upto 24 hrs by LC-MS/MS analysis; type: ADME, organism-based; parameters: route oral, dose 10 mg/kg, time <=24; settings: in vivo
[10] = AUClast in Sprague-Dawley rat at 1 mg/kg, iv measured upto 24 hrs by LC-MS/MS analysis; type: ADME, organism-based; parameters: route intravenous, dose 1 mg/kg, time <=24; settings: in vivo
[11] = MRTlast in Sprague-Dawley rat at 1 mg/kg, iv measured upto 24 hrs by LC-MS/MS analysis; type: ADME, organism-based; settings: in vivo
[12] = Half life in Sprague-Dawley rat at 1 mg/kg, iv measured upto 24 hrs by LC-MS/MS analysis; type: ADME, organism-based; settings: in vivo
[13] = Tmax in Sprague-Dawley rat at 1 mg/kg, iv measured upto 24 hrs by LC-MS/MS analysis; type: ADME, organism-based; settings: in vivo
[14] = Cmax in Sprague-Dawley rat at 1 mg/kg, iv measured upto 24 hrs by LC-MS/MS analysis; type: ADME, organism-based; parameters: route intravenous, dose 1 mg/kg, time <=24; settings: in vivo

| Structure (SMILES) | pIC50 (Hep 3B2) | pIC50 [3] | further results |
| --- | --- | --- | --- |
| C=CC(=O)Nc1cccc(C)c1Nc1ncc2cc(-c3c(Cl)c(OC)cc(OC)c3Cl)ccc2n1 | 6.54 | – | half-life at 1 µM [1]: 46.7 min; microsomal CLint at 1 µM [2]: 74.1 µL/min/mg |
| CC#CC(=O)N1CCN(CCCn2cc(-c3cc(OC)cc(OC)c3)c3cnc(NC)nc32)CC1 | < 5.00 | < 6.00 | – |
| CC#CC(=O)Nc1ccccc1Nc1ccc2c(C(=O)c3cc(OC)cc(OC)c3)c[nH]c2n1 | 6.22 | – | – |
| C=CC(=O)N1CCN(CCCn2cc(-c3cc(OC)cc(OC)c3)c3ccc(NC)nc32)CC1 | < 5.00 | – | – |
| C=CC(=O)N1CCN(CCn2cc(-c3cc(OC)cc(OC)c3)c3cnc(NC)nc32)CC1 | < 5.00 | < 6.00 | – |
| C=CC(=O)N1CCN(CCn2cc(-c3ccc(OC)c(OC)c3)c3cnc(NC)nc32)CC1 | < 5.00 | < 6.00 | – |
| C=CS(=O)(=O)Nc1ccccc1Nc1ccc2c(C(=O)c3cc(OC)cc(OC)c3)c[nH]c2n1 | 5.99 | – | – |
| CNc1ncc2c(-c3cc(OC)cc(OC)c3)noc2n1 | < 5.00 | < 6.00 | – |
| C=CS(=O)(=O)N1CCN(CCCn2cc(-c3cc(OC)cc(OC)c3)c3cnc(NC)nc32)CC1 | < 5.00 | < 6.00 | – |
| C=CC(=O)N1CCN(CCn2nc(-c3cc(OC)cc(OC)c3)c3cnc(NC)nc32)CC1 | < 5.00 | < 6.00 | – |
| C=CC(=O)Nc1ccccc1Nc1ccc2c(C(=O)c3cc(OC)cc(OC)c3)c[nH]c2n1 | – | – | bioavailability [4]: 6.65%; MRT last at 24 h [5]: 227 min; AUC(0-t) at 24 h [6]: 206 ng·h/mL; half-life [7]: 463 min; Tmax [8]: 60 min; Cmax [9]: 33.9 ng/mL; AUC(0-t) at 24 h [10]: 277 ng·h/mL; MRT last at 24 h [11]: 46.2 min; half-life [12]: 51.6 min; Tmax [13]: 4.98 min; Cmax [14]: 361 ng/mL; half-life at 1 µM [1]: 62 min; microsomal CLint at 1 µM [2]: 55.9 µL/min/mg |
| C=CC(=O)NC1CCCCC1Nc1ccc2c(C(=O)c3cc(OC)cc(OC)c3)c[nH]c2n1 (centres undefined) | 6.59 | – | – |
| C=CC(=O)Nc1cccc(C)c1Nc1ccc2c(C(=O)c3cc(OC)cc(OC)c3)c[nH]c2n1 | 6.36 | – | – |
| C=CC(=O)Nc1ccccc1Nc1ncc2c(-c3cc(OC)cc(OC)c3)n[nH]c2n1 | 5.39 | – | – |
